The target in experiment [1] is T1, JAK3 (Homo sapiens, UniProt P52333).
T1 sequence (P52333 1-1124): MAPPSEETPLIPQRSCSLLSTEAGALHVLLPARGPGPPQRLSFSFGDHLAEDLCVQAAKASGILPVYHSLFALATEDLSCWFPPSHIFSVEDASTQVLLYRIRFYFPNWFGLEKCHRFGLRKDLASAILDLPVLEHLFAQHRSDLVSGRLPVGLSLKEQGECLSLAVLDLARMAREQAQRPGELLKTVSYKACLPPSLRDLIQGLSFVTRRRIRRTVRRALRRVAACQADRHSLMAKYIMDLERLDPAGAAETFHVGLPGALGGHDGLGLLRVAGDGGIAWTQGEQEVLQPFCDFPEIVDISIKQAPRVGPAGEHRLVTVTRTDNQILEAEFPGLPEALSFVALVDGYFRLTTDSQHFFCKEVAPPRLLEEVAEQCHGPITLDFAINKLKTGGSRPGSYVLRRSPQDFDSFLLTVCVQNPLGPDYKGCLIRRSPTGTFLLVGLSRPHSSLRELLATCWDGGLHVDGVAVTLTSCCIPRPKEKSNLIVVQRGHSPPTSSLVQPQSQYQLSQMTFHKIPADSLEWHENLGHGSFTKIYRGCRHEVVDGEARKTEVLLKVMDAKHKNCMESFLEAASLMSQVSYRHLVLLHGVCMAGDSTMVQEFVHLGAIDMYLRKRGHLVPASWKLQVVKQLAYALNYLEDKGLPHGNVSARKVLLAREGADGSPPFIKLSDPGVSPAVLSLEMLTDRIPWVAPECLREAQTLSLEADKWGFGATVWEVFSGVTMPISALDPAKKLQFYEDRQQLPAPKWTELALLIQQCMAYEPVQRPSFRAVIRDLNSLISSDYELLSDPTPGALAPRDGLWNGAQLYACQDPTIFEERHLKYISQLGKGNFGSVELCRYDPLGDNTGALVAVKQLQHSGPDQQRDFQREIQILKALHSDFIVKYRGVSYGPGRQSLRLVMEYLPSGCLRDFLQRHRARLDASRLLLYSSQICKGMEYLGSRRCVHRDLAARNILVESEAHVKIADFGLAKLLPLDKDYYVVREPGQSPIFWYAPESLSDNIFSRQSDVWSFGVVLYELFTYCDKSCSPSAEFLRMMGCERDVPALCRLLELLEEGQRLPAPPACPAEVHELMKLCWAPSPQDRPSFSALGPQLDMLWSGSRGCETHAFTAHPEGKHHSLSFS
Put plainly: In vitro JAK3 inhibition, biochemical IC50 (no preincubation). The note with it: Table 8. The method, then: (§1) In vitro BTK and JAK3 inhibition studies are shown in Table 7 and Table 8 (no preincubation).

In experiment [2] the target is FGFR4 (Homo sapiens, UniProt P22455). Put plainly: In vitro kinase inhibition studies (Table 9), FGFR4. Format: biochemical.
FGFR4, sequence (P22455 22-802, species assumed): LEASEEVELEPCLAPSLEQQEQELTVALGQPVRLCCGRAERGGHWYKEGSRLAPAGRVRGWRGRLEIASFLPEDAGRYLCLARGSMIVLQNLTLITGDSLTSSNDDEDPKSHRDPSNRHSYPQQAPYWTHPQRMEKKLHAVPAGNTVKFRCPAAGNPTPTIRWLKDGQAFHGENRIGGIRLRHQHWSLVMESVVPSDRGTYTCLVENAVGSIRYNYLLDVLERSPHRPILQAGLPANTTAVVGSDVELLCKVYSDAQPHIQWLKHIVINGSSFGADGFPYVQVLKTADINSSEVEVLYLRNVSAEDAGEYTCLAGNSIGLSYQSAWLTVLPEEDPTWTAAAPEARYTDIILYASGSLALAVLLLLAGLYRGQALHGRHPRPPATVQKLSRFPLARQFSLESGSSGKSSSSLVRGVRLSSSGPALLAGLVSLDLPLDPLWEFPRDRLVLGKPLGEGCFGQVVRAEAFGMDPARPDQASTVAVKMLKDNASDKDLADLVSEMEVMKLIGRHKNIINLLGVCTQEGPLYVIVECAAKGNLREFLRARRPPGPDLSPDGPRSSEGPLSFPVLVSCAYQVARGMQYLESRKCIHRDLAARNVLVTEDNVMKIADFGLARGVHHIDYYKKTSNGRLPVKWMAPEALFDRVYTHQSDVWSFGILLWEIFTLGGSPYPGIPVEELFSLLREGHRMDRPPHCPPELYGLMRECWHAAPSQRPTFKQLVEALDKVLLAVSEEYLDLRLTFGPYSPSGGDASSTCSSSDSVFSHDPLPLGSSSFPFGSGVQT
In experiment [3] the target is T2, BTK (Homo sapiens, UniProt Q06187). Put plainly: Total BTK degradation assay (Total BTK-HTRF) in RAMOS cells. Format: cell-based. Background: TR-FRET usually uses a lanthanide donor and a delayed reading to cut background.
T2 sequence (Q06187 whole entry, species assumed): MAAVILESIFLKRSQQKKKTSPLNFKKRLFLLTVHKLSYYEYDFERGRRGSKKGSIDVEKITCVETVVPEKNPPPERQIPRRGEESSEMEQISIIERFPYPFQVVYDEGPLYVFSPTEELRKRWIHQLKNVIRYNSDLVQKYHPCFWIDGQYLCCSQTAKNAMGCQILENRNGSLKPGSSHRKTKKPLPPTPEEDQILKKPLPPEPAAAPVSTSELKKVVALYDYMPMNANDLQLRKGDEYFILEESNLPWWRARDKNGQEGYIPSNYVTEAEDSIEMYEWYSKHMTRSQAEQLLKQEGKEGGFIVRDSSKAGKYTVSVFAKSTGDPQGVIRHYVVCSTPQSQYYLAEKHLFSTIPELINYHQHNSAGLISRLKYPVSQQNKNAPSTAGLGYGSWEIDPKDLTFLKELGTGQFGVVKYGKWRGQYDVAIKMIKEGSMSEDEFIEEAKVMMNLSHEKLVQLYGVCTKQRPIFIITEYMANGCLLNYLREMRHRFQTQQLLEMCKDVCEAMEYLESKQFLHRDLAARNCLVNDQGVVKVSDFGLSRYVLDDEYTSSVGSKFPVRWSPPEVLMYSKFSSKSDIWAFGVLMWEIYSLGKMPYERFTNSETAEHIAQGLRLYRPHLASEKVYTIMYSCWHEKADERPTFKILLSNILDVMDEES
Method: A Total BTK-HTRF assay (Cisbio Total BTK cat #63ADK064PEG) was performed to quantitate the ability of test compounds to degrade BTK protein levels in RAMOS cells. This total protein assay monitors the steady state protein level in a sandwich assay format using two different specific antibodies after lysis of the cell-membrane. The antibodies recognise two different epitopes on BTK and are labelled with Eu3^+-cryptate (donor) and d2 (acceptor). […] The specific signal modulates positively in proportion to the total concentration of BTK.
In order to evaluate the degradation of BTK by test compounds, a total BTK degradation assay was performed (Cisbio Total BTK cat #63ADK064PEG). The frozen stock solutions of the two different BTK antibodies were diluted 20-fold with the detection buffer and pre-mixed before use in the assay. Supplemented lysis buffer (4×) was prepared by diluting the blocking reagent solution 25-fold with lysis buffer (4×) and mixing gently.
were plated at a density of 50K cells/well (8 uL) in RPMI medium with 10% FBS into 384-well white detection plates. […] The plate was read on an Biotek Synergy Neo2 plate reader using 330 nm excitation, 620 nm-donor emission and 670 nm-acceptor emission.
Experiment [4] has as its target T2, BTK. Put plainly: In vitro BTK inhibition, biochemical IC50 (no preincubation). The note with it: Table 8. As to the method:
IC50 Values (nM) for the Inhibition of BTK Activity
as §1

Experiment [5] addresses FGFR1 (Homo sapiens, UniProt P11362). Put plainly: In vitro kinase inhibition studies (Table 9), FGFR1. It is filed as biochemical.
In experiment [6] the target is T2, BTK. Put plainly: BTK washout experiment (residual activity after 400-fold dilution). Format: biochemical. The note with it: 6-h incubation of 50 nM BTK with 177 nM compound, relative to DMSO alone. As to the method: After a 3-h incubation of 40 nM BTK in the presence of 296 nM of compound Compound 5-1, a 400-fold dilution was performed to remove excess inhibitor.
By way of contrast, a “washout” experiment performed with ARQ-531 gives a very different result, because this compound lacks a warhead and is known to inhibit BTK reversibly. After a 6-h incubation of 50 nM BTK in the presence of 177 nM of ARQ-531, a 400-fold dilution was performed to remove excess inhibitor. […] This indicates to one of ordinary skill in the art that the enzyme was not inhibited irreversibly during the incubation with ARQ-531.

Experiment [7] relates to normal pooled human fibroblasts. Put plainly: IC50 of Ibrutinib analogs against normal human cells, pooled human fibroblasts (Table 14). It is filed as cell-based. The note with it: Fibroblast, TABLE 9. As to the method:
Anti-cancer efficacy of exemplary compounds of this application is assessed in vitro in different cancer cell lines. Cell viability is examined following treatment at various concentration of inhibitor (0.097656-50 μM) using a cell Titer-Blue cell viability assay. 1×10^4 cells (NHF cells)/well are plated in 96-well assay plates in culture medium. All cells are grown in DMEM, IMDM and RPMI-1640 supplemented with 10% FBS. After 24 hrs, test compounds and vehicle controls are added to appropriate wells so the final volume is […] in each well. The cells are cultured for the desired test exposure period (72 hrs) at 37° C. and 5% CO2. The assay plates are removed from 37° C. incubator and 20 μl/well of CellTiter-Blue® Reagent is added. The plates are incubated using standard cell culture conditions for 1-4 hours and the plates are shaken for 10 seconds and record fluorescence at 560/590 nm.
Therapeutic index=(IC50 human fibroblasts/IC50 RLcells)

The subject of experiment [8] is RL cells. Put plainly: IC50 of Ibrutinib analogs against human cancer cells, RL cells (Table 14). The note with it: Homo sapiens, RL. Format: cell-based.
Method: 1×10^4 cells (NHF cells)/well are plated in 96-well assay plates in culture medium. […] After 24 hrs, test compounds and vehicle controls are added to appropriate wells so the final volume is 100p in each well. The cells are cultured for the desired test exposure period (72 hrs) at 37° C. and 5% CO2. The assay plates are removed from 37° C. incubator and 20 μl/well of CellTiter-Blue® Reagent is added. The plates are incubated using standard cell culture conditions for 1-4 hours and the plates are shaken for 10 seconds and record fluorescence at 560/590 nm. […] Therapeutic index=(IC50 human fibroblasts/IC50 […] )

Read-outs that look alike come from different tables or passages of the source.

FGFR1, sequence (P11362 22-822, species assumed): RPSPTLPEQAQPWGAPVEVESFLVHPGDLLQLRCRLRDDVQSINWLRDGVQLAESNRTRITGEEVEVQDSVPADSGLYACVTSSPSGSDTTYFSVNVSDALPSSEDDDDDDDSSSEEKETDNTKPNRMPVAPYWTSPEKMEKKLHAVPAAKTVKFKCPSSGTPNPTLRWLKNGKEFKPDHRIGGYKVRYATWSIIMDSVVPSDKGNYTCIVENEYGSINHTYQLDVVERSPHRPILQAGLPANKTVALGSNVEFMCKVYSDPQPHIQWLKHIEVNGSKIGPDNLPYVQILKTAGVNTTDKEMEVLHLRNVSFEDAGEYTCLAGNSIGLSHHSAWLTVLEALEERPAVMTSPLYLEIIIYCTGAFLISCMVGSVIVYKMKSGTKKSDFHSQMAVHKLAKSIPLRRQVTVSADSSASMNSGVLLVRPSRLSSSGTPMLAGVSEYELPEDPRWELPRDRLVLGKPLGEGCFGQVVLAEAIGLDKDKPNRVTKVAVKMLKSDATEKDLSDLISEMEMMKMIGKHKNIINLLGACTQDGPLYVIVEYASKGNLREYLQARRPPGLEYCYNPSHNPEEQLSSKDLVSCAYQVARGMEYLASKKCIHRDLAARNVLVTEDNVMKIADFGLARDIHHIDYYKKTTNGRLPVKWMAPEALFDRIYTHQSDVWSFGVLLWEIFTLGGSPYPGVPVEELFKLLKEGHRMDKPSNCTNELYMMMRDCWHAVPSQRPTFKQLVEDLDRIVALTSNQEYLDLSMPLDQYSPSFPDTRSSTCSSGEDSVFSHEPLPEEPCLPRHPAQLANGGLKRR

On to `O=S(=O)(NCCNc1ncnc2[nH]ccc12)c1c(F)c(F)c(F)c(F)c1F` [Compound 5-10, N-(2-((7H-pyrrolo[2,3-d]pyrimidin-4-yl)amino)ethyl)-2,3,4,5,6-pentafluorobenzene sulfonamide], for which, in experiment [1], the “JAK3 (IC50, nM)” value is listed as “E (E: >1000 nM to ≤ 0,000 nM)”.
Consider `CN(CCNc1ncnc2[nH]ccc12)S(=O)(=O)c1c(F)c(F)c(F)c(F)c1F` [Compound 5-11, N-(2-((7H-pyrrolo[2,3-d]pyrimidin-4-yl)amino)ethyl)-2,3,4,5,6-pentafluoro-N-methylbenzenesulfonamide], for which the “JAK3 (IC50, nM)” value in experiment [1] is listed as “E (E: >1000 nM to ≤ 0,000 nM)”.
Broadly, the IC50 is the concentration at which inhibition is half-maximal. On to `COCCOc1ccc(Nc2ncc(F)c(Nc3cccc(NS(=O)(=O)c4c(F)c(F)c(F)c(F)c4F)c3)n2)cc1` [Compound 5-15, 2,3,4,5,6-pentafluoro-N-(3-((5-fluoro-2-((4-(2-methoxyethoxy)phenyl)amino)pyrimidin-4-yl)amino)phenyl)benzenesulfonamide], for which the IC50 in experiment [2] was in the range of 0.01 to 0.3 µM; in experiment [4], 0.1 to 1 µM; in experiment [5] it was 0.0001 to 0.01 µM. The “Percent residual BTK after 24 hours with test compound (5 μM)” value in experiment [3] worked out at 75%.
On to `C[C@H]1CC[C@@H](Nc2ncnc3[nH]ccc23)CN1S(=O)(=O)c1c(F)c(F)c(F)c(F)c1F` [Compound 5-8, N-((3R,6S)-6-methyl-1-((perfluorophenyl)sulfonyl)piperidin-3-yl)-7H-pyrrolo[2,3-d]pyrimidin-4-amine], for which the “JAK3 (IC50, nM)” value in experiment [1] is recorded as “E (E: >1000 nM to ≤ 0,000 nM)”.
In the case of `O=C(c1ccc(Oc2ccccc2)cc1Cl)c1c[nH]c2ncnc(N[C@@H]3CC[C@@H](CO)OC3)c12` [ARQ-531], in experiment [6], the “enzyme activity after washout” value is reported as “recovered all of its activity”.
Take `COCCOc1ccc(Nc2ncc(F)c(NCCCNS(=O)(=O)c3c(F)c(F)c(F)c(F)c3F)n2)cc1` [Compound 5-7, 2,3,4,5,6-pentafluoro-N-(3-((5-fluoro-2-((4-(2-methoxyethoxy)phenyl)amino)pyrimidin-4-yl)amino)propyl)benzenesulfonamide]: the IC50 in experiment [2] and in experiment [5] was 0.3 to 2 µM in each case. Also, in experiment [3], the “Percent residual BTK after 24 hours with test compound (5 μM)” value came out at 63%.
Regarding `C=CC(=O)N1CCC[C@@H](n2nc(-c3ccc(Oc4ccccc4)cc3)c3c(N)ncnc32)C1` [Ibrutinib, reference compound], the half-inhibitory concentration (IC50) in experiment [7] amounted to 26.8 µM; in experiment [8] (RL cells, read-out: IC50 in RL cells) it was 10.3 µM; in experiment [8] (TABLE 9, read-out: RL (IC50)), 10.3 µM; in experiment [8] (Table 14, RL human non-Hodgkin's lymphoma B cell line, read-out: RL (IC50)), 10.3 µM.
